Measured values published in patent US20250122183A1 (Pfizer Inc., priority 2023, published 2025).
Where two headings read alike, the source gives them in different places.

Experiments:
Format in all cases: biochemical
[1] = target: KAT7+JADE1+EAF6+ING5 4 protein complex (Homo sapiens (Human), UniProt O95251); assay: KAT7 JADE1 assay (SAMDI-MS acetylation of H3 1-21 peptide); conditions: replicate number in parentheses
[2] = target: KAT5 Full length enzyme (Homo sapiens (Human), UniProt Q92993); assay: KAT5 assay (SAMDI-MS acetylation of H4 1-21 peptide); conditions: Morrison equation fit; replicate number in parentheses; read-out: KAT5 Ki (nM) (replicate number)
Chain of KAT5 Full length enzyme (Q92993 whole entry): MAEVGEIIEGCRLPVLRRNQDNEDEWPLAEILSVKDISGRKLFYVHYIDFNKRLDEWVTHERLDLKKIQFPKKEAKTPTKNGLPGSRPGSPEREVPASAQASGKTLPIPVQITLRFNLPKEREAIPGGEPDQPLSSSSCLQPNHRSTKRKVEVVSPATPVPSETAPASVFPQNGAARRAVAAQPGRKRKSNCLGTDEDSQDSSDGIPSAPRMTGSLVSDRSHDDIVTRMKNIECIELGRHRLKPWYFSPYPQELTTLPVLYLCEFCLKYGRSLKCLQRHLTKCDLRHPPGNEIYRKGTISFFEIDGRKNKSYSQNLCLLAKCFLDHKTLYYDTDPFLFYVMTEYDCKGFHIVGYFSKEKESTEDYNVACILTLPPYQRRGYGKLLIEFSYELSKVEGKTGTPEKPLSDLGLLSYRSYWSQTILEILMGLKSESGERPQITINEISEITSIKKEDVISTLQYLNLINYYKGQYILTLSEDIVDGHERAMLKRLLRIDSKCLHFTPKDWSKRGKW

[3] = target: KAT6A Full length enzyme (Homo sapiens (Human), UniProt Q92794); assay: KAT6A assay (SAMDI-MS acetylation of H3 1-21 peptide); conditions: replicate number in parentheses
Chain of KAT6A Full length enzyme (Q92794 other isoform, or with tags, fused parts or gaps): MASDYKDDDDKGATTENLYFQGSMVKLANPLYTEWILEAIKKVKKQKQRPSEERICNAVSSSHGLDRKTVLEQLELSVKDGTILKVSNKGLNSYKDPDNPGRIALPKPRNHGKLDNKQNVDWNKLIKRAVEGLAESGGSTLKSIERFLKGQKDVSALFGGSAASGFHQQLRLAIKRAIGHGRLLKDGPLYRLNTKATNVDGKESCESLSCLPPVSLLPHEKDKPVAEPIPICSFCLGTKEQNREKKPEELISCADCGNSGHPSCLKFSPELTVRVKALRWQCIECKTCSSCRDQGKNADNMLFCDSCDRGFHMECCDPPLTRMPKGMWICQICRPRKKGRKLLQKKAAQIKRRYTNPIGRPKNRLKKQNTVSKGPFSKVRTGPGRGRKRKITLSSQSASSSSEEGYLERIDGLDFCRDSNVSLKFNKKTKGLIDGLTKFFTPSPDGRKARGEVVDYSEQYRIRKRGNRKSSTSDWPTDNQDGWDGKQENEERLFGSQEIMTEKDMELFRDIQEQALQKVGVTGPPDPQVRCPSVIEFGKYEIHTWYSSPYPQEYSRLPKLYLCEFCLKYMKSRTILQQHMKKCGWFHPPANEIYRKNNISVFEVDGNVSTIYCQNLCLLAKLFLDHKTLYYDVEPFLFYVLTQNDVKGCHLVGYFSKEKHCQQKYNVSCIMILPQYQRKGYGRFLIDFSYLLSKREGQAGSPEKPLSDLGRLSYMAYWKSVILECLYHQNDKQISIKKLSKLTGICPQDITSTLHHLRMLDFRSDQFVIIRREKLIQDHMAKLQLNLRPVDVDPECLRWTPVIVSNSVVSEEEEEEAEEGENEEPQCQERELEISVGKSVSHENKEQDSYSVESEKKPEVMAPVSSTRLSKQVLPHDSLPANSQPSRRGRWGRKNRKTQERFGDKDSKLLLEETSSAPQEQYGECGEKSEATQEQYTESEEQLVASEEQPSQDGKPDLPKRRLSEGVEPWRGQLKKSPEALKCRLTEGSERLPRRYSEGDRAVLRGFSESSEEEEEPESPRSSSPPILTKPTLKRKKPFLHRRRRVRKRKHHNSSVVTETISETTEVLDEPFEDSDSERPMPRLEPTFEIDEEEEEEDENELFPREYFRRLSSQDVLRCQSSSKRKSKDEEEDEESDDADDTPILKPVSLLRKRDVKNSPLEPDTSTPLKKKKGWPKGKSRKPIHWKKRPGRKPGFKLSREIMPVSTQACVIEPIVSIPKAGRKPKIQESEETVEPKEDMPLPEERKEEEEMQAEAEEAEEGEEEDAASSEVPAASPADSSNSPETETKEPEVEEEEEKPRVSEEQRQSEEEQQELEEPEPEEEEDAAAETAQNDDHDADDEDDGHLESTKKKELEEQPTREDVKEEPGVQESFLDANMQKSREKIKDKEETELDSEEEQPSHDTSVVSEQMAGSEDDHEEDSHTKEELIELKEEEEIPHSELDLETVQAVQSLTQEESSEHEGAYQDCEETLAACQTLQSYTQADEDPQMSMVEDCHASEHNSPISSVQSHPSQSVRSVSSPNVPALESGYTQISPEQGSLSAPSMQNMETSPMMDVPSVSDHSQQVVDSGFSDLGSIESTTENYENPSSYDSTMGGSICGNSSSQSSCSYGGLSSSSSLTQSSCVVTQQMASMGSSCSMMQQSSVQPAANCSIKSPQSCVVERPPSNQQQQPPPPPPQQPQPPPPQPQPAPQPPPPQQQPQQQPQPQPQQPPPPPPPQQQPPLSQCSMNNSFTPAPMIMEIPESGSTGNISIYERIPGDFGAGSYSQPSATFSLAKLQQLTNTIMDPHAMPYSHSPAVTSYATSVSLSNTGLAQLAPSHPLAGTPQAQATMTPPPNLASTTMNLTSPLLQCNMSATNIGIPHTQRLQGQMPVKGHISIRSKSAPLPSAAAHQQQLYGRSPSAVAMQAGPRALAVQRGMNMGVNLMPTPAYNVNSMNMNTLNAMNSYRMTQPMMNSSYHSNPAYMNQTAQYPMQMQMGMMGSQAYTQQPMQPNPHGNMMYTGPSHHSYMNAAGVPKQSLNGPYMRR

[4] = target: KAT8 Full length enzyme (Homo sapiens (Human), UniProt Q9H7Z6); assay: KAT8 assay (SAMDI-MS acetylation of H3 1-21 peptide); conditions: replicate number in parentheses
Chain of KAT8 Full length enzyme (Q9H7Z6 whole entry): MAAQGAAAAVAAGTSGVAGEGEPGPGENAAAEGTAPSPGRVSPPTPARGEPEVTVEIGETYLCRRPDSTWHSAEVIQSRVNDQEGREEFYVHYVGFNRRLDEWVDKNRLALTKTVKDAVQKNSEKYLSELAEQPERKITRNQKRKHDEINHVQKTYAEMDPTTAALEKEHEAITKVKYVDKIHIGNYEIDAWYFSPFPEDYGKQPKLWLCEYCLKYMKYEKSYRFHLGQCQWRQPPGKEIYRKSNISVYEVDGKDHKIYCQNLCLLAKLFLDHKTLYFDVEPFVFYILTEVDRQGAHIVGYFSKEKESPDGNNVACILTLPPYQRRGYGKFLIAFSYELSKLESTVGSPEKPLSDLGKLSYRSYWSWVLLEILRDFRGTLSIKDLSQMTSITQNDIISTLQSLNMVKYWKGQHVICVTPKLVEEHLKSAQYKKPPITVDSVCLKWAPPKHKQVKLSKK

[5] = Morrison equation fit, read-out: KAT7 JADE1 Ki (nM) (replicate number)
[6] = Morrison equation fit, read-out: KAT6A Ki (nM) (replicate number)
[7] = Morrison equation fit, read-out: KAT8 Ki (nM) (replicate number)
[8] = read-out: KAT7 JADE1 Ki (nM) (replicate)
[9] = read-out: KAT6A Ki (nM) (replicate)
[10] = read-out: KAT8 Ki (nM) (replicate)

Compound `COc1cc2c(NS(=O)(=O)c3c(OC)cccc3OC)noc2cc1Nc1cc([C@H]2CC2(F)F)[nH]n1` (single isomer, unassigned) [Example 68, N-(6-{[5-(2,2-difluorocyclopropyl)-1H-pyrazol-3-yl]amino}-5-methoxy-1,2-benzoxazol-3-yl)-2,6-dimethoxybenzene-1-sulfonamide] has a Ki [1, 5] of 16.8 nM, a Ki [2] of 39.3 nM and a Ki [3, 6] of 1.2 nM. For the same compound, the Ki [4, 7] was 4130 nM.

In the case of `COc1cc2c(NS(=O)(=O)c3c(OC)cccc3OC)noc2cc1Nc1cc([C@@H]2CC2(F)F)[nH]n1` (single isomer, unassigned) [Example 69, N-(6-{[5-(2,2-difluorocyclopropyl)-1H-pyrazol-3-yl]amino}-5-methoxy-1,2-benzoxazol-3-yl)-2,6-dimethoxybenzene-1-sulfonamide], the Ki [1, 5] is reported as > 29000 nM, the Ki [2] is reported as > 50000 nM and the Ki [3, 6] is reported as > 3290 nM. The Ki [4, 7] was > 13000 nM.

With `COc1cc2c(NS(=O)(=O)c3c(OC)cccc3OC)noc2cc1Nc1cc([C@H](C)O)n[nH]1` (single isomer, unassigned) [Example 86, N-(6-{[3-(1-hydroxyethyl)-1H-pyrazol-5-yl]amino}-5-methoxy-1,2-benzoxazol-3-yl)-2,6-dimethoxybenzene-1-sulfonamide] the Ki [1, 5] was 552 nM, the Ki [2] was 1280 nM and the Ki [3, 6] was 8.9 nM. The Ki [4, 7] was > 13000 nM.

`COc1cc2c(NS(=O)(=O)c3c(OC)cccc3OC)noc2cc1Nc1cc([C@@H](C)O)n[nH]1` (single isomer, unassigned) [Example 87, N-(6-{[3-(1-hydroxyethyl)-1H-pyrazol-5-yl]amino}-5-methoxy-1,2-benzoxazol-3-yl)-2,6-dimethoxybenzene-1-sulfonamide] was tested, and the Ki [1, 5] was 1230 nM, the Ki [2] was 1800 nM and the Ki [3, 6] was 23.5 nM. The Ki [4, 7] was > 13000 nM.

For `COc1cc2c(NS(=O)(=O)c3c(OC)cccc3OC)noc2cc1Nc1cc2n(n1)CC[C@@H]2C` (single isomer, unassigned) [Example 89, 2,6-dimethoxy-N-(5-methoxy-6-{[4-methyl-5,6-dihydro-4H-pyrrolo[1,2-b]pyrazol-2-yl]amino}-1,2-benzoxazol-3-yl)benzene-1-sulfonamide], the Ki [1, 5] was 39.3 nM, the Ki [2] was 168 nM and the Ki [3, 6] was 3 nM. For the same compound, the Ki [4, 7] was > 12200 nM.

In the case of `COc1cc2c(NS(=O)(=O)c3c(OC)cccc3OC)noc2cc1Nc1cc2n(n1)CC[C@H]2C` (single isomer, unassigned) [Example 90, 2,6-dimethoxy-N-(5-methoxy-6-{[4-methyl-5,6-dihydro-4H-pyrrolo[1,2-b]pyrazol-2-yl]amino}-1,2-benzoxazol-3-yl)benzene-1-sulfonamide], the Ki [1, 5] is reported as 62.4 nM, the Ki [2] is reported as 251 nM and the Ki [3, 6] is reported as 3.4 nM. For the same compound, the Ki [4, 7] was > 13000 nM.

Compound `COc1cc2c(NS(=O)(=O)c3c(OC)cc(C4CCCCO4)cc3OC)noc2cc1Nc1cc(C2CC2)n[nH]1` (single isomer, unassigned) [Example 143, N-{6-[(3-cyclopropyl-1 H-pyrazol-5-yl)amino]-5-methoxy-1,2-benzoxazol-3-yl}-2,6-dimethoxy-4-(oxan-2-yl)benzene-1-sulfonamide] has a Ki [1, 5] of 9.6 nM, a Ki [2] of 44.3 nM and a Ki [3, 6] of 1.1 nM. For the same compound, the Ki [4, 7] was 436 nM.

`COc1cc2c(NS(=O)(=O)c3c(OC)cc(C4CCN(C)C4)cc3OC)noc2cc1Nc1cc(C2CC2)n[nH]1` (single isomer, unassigned) [Example 148, N-{6-[(3-cyclopropyl-1 H-pyrazol-5-yl)amino]-5-methoxy-1,2-benzoxazol-3-yl}-2,6-dimethoxy-4-(1-methylpyrrolidin-3-yl)benzene-1-sulfonamide] gave a Ki [1, 5] of 3.6 nM, a Ki [2] of 78.1 nM and a Ki [3, 6] of 1.1 nM. The Ki [4, 7] was 575 nM.

With `COc1cc2c(NS(=O)(=O)c3c(OC)cc(C4CN(C)CCO4)cc3OC)noc2cc1Nc1cc(C2CC2)n[nH]1` (single isomer, unassigned) [Example 152, N-{6-[(3-cyclopropyl-1 H-pyrazol-5-yl)amino]-5-methoxy-1,2-benzoxazol-3-yl}-2,6-dimethoxy-4-(4-methylmorpholin-2-yl)benzene-1-sulfonamide] the Ki [1, 5] was 4.1 nM, the Ki [2] was 105 nM and the Ki [3, 6] was 0.7 nM. For the same compound, the Ki [4, 7] was 1160 nM.

`COc1cc2c(NS(=O)(=O)c3c(OC)cc(C4CN(C)CCO4)cc3OC)noc2cc1Nc1cc(C2CC2)n[nH]1` (single isomer, unassigned) [Example 153, N-{6-[(3-cyclopropyl-1 H-pyrazol-5-yl)amino]-5-methoxy-1,2-benzoxazol-3-yl}-2,6-dimethoxy-4-(4-methylmorpholin-2-yl)benzene-1-sulfonamide] was tested, and the Ki [1, 5] was 5.7 nM, the Ki [2] was 17.4 nM and the Ki [3, 6] was 0.8 nM. It also gave a Ki [4, 7] of 571 nM.

Compound `COc1cc2c(NS(=O)(=O)c3c(OC)cc(C4COCCN4C)cc3OC)noc2cc1Nc1cc(C2CC2)[nH]n1` (single isomer, unassigned) [Example 180, N-{6-[(5-cyclopropyl-1 H-pyrazol-3-yl)amino]-5-methoxy-1,2-benzoxazol-3-yl}-2,6-dimethoxy-4-(4-methylmorpholin-3-yl)benzene-1-sulfonamide] has a Ki [1, 5] of 6.5 nM, a Ki [2] of 94.8 nM and a Ki [3, 6] of 1.7 nM. It also gave a Ki [4, 7] of 3370 nM.

For `COc1cc2c(NS(=O)(=O)c3c(OC)cc(C(C)N4CC(F)C4)cc3OC)noc2cc1Nc1cc(C2CC2)[nH]n1` (single isomer, unassigned) [Example 209, N-{6-[(5-cyclopropyl-1 H-pyrazol-3-yl)amino]-5-methoxy-1,2-benzoxazol-3-yl}-4-[1-(3-fluoroazetidin-1-yl)ethyl]-2,6-dimethoxybenzene-1-sulfonamide], the Ki [1, 5] was 7.7 nM, the Ki [2] was 106 nM and the Ki [3, 6] was 1.4 nM. For the same compound, the Ki [4, 7] was 2400 nM.

For `COc1cc2c(NS(=O)(=O)c3cc4c(cc3OC)CCCC4)noc2cc1Nc1cc[nH]n1` [Example 05, 3-Methoxy-N-{5-methoxy-6-[(1H-pyrazol-3-yl)amino]-1,2-benzoxazol-3-yl}-5,6,7,8-tetrahydronaphthalene-2-sulfonamide], the Ki [2] was 13.6 nM, the Ki [3, 6] was 0.5 nM and the Ki [4, 7] was 290 nM.

For `COc1cc2c(NS(=O)(=O)c3cc(C)c(C)cc3OC)noc2cc1Nc1cc[nH]n1` [Example 25, 2-methoxy-N-{5-methoxy-6-[(1H-pyrazol-3-yl)amino]-1,2-benzoxazol-3-yl}-4,5-dimethylbenzene-1-sulfonamide], the Ki [2] was 121 nM, the Ki [3, 6] was 0.8 nM and the Ki [4, 7] was 446 nM.

Work on `CCc1cc(Nc2cc3onc(NS(=O)(=O)c4c(OC)cc(-c5nccc(C)n5)cc4OC)c3cc2OC)[nH]n1` [Example 233, N-{6-[(3-ethyl-1H-pyrazol-5-yl)amino]-5-methoxy-1,2-benzoxazol-3-yl}-2,6-dimethoxy-4-(4-methylpyrimidin-2-yl)benzene-1-sulfonamide] yielded a Ki [1, 5] of 8.9 nM, a Ki [3, 6] of 1.7 nM and a Ki [4, 7] of 2000 nM.

`CCc1cc(Nc2cc3onc(NS(=O)(=O)c4c(OC)cc(-c5ncc(C)cn5)cc4OC)c3cc2OC)[nH]n1` [Example 234, N-{6-[(3-ethyl-1H-pyrazol-5-yl)amino]-5-methoxy-1,2-benzoxazol-3-yl}-2,6-dimethoxy-4-(5-methylpyrimidin-2-yl)benzene-1-sulfonamide] was tested, and the Ki [1, 5] was 8.5 nM, the Ki [3, 6] was 1 nM and the Ki [4, 7] was 1680 nM.

`CCc1cc(Nc2cc3onc(NS(=O)(=O)c4c(OC)cc(-c5ccc(C)nn5)cc4OC)c3cc2OC)[nH]n1` [Example 235, N-{6-[(3-ethyl-1H-pyrazol-5-yl)amino]-5-methoxy-1,2-benzoxazol-3-yl}-2,6-dimethoxy-4-(6-methylpyridazin-3-yl)benzene-1-sulfonamide] gave a Ki [1, 5] of 6 nM, a Ki [3, 6] of 0.8 nM and a Ki [4, 7] of 2360 nM.

`CCc1cc(Nc2cc3onc(NS(=O)(=O)c4c(OC)cc(-c5ccc(C)cn5)cc4OC)c3cc2OC)[nH]n1` [Example 236, N-{6-[(3-ethyl-1H-pyrazol-5-yl)amino]-5-methoxy-1,2-benzoxazol-3-yl}-2,6-dimethoxy-4-(5-methylpyridin-2-yl)benzene-1-sulfonamide] was tested, and the Ki [1, 5] was 3.5 nM, the Ki [3, 6] was 0.4 nM and the Ki [4, 7] was 364 nM.

`COc1cc2c(NS(=O)(=O)c3c(OC)cc(N4CCCC4=O)cc3OC)noc2cc1Nc1cc(C2CC2)n[nH]1` [Example 246, N-{6-[(3-cyclopropyl-1H-pyrazol-5-yl)amino]-5-methoxy-1,2-benzoxazol-3-yl}-2,6-dimethoxy-4-(2-oxopyrrolidin-1-yl)benzene-1-sulfonamide] showed a Ki [1, 8] of 6.4 nM, a Ki [3, 9] of 1 nM and a Ki [4, 10] of 1840 nM.

`COc1cc2c(NS(=O)(=O)c3c(OC)cc(C4CCOCC4)cc3OC)noc2cc1Nc1cc(C2CC2)n[nH]1` [Example 265, N-{6-[(3-cyclopropyl-1 H-pyrazol-5-yl)amino]-5-methoxy-1,2-benzoxazol-3-yl}-2,6-dimethoxy-4-(oxan-4-yl)benzene-1-sulfonamide] showed a Ki [1, 8] of 2.3 nM, a Ki [3, 9] of 0.3 nM and a Ki [4, 10] of 918 nM.

`COCc1cc(OC)c(S(=O)(=O)Nc2noc3cc(Nc4cc(C5CC5)n[nH]4)c(OC)cc23)c(OC)c1` [Example 270, N-{6-[(3-cyclopropyl-1 H-pyrazol-5-yl)amino]-5-methoxy-1,2-benzoxazol-3-yl}-2,6-dimethoxy-4-(methoxymethyl)benzene-1-sulfonamide] was tested, and the Ki [1, 8] was 13.5 nM, the Ki [3, 9] was 1.3 nM and the Ki [4, 10] was 1790 nM.

`COc1cc2c(NS(=O)(=O)c3c(OC)cc(C(C)(C)OC)cc3OC)noc2cc1Nc1cc(C2CC2)n[nH]1` [Example 271, N-{6-[(3-cyclopropyl-1H-pyrazol-5-yl)amino]-5-methoxy-1,2-benzoxazol-3-yl}-2,6-dimethoxy-4-(2-methoxypropan-2-yl)benzene-1-sulfonamide] gave a Ki [1, 8] of 7 nM, a Ki [3, 9] of 1 nM and a Ki [4, 10] of 1010 nM.
